From US9725449B2, “Tricyclic compounds as anticancer agents” (BRISTOL-MYERS SQUIBB COMPANY, priority 2015, dated 2017)

Each compound was assayed against BRD4 (Homo sapiens, UniProt O60885) (assay: Time resolved fluorescence resonance energy transfer (TR-FRET) binding assay, bromodomain BRD4). Conditions: one of the FRET assays described; read-out: FRET BRD4 IC50.
For `Cc1nnn(C)c1-c1cnc2c3ccc(C#N)nc3n([C@H](c3ccccc3)C3CCOCC3)c2c1` [Example 169, 5-(Dimethyl-1H-1,2,3-triazol-5-yl)-8-[(S)-oxan-4-yl(phenyl)methyl]-3,8,10-triazatricyclo[7.4.0.0^2,^7]trideca-1(9),2(7),3,5,10,12-hexaene-11-carbonitrile], the IC50 was < 0.01 µM.
With `[2H]C([2H])([2H])c1nnn(C)c1-c1cnc2c3c(OCC)ncc(S(C)(=O)=O)c3n([C@H](c3ccc(F)cc3)C3CCOCC3)c2c1` [Example 77, 13-Ethoxy-8-[(S)-(4-fluorophenyl)(oxan-4-yl)methyl]-10-methanesulfonyl-5-[4-(^2H3)methyl-1-methyl-1H-1,2,3-triazol-5-yl]-3,8,12-triazatricyclo[7.4.0.0^2,^7]trideca-1(13),2(7),3,5,9,11-hexaene] the IC50 was < 0.001 µM.
For `Cc1nnn(C)c1-c1cc2c(cn1)c1ncc(C(C)(C)O)cc1n2[C@H](c1ccccc1)C1CCOCC1` [Example 368], the IC50 was < 0.01 µM.
With `[2H]C([2H])([2H])c1nnn(C)c1-c1cnc2c3ccc(C4=CCS(=O)(=O)CC4)nc3n([C@H](c3ccccc3)C3CCOCC3)c2c1` [Example 204, 4-{5-[4-(^2H3)Methyl-1-methyl-1H-1,2,3-triazol-5-yl]-8-[(S)-oxan-4-yl(phenyl)methyl]-3,8,10-triazatricyclo[7.4.0.0^2,^7]trideca-1(9),2(7),3,5,10,12-hexaen-11-yl}-3,6-dihydro-2H-1λ^6-thiopyran-1,1-dione] the IC50 was < 0.01 µM.
In the case of `[2H]C(C)(O)c1ccc2c3ncc(-c4c(C)nnn4C)cc3n([C@H](c3ccccc3)C3CCOCC3)c2n1` (stereo partly drawn) [Example 172, 1-[5-(Dimethyl-1H-1,2,3-triazol-5-yl)-8-[(S)-oxan-4-yl(phenyl)methyl]-3,8,10-triazatricyclo[7.4.0.0^2,^7]trideca-1(9),2(7),3,5,10,12-hexaen-11-yl](1-^2H)ethan-1-ol], the IC50 is reported as < 0.01 µM.
In the case of `[2H]C([2H])([2H])c1nnn(C)c1-c1cnc2c3c(OC)ncc(C(C)(C)O)c3n(C(c3ccccc3)C3CCC(F)(F)CC3)c2c1` (single isomer, unassigned) [Example 281, 2-{8-[(4,4-Difluorocyclohexyl)(phenyl)methyl]-13-methoxy-5-[4-(^2H3)methyl-1-methyl-1H-1,2,3-triazol-5-yl]-3,8,12-triazatricyclo[7.4.0.0^2,^7]trideca-1(9),2,4,6,10,12-hexaen-10-yl}propan-2-ol], the IC50 is reported as < 0.01 µM.
`CCS(=O)(=O)Nc1ncc(S(C)(=O)=O)c2c1c1ncc(-c3c(C)noc3C)cc1n2[C@H](c1ccccc1)C1CCOCC1` [Example 99, N-[5-(Dimethyl-1,2-oxazol-4-yl)-10-methanesulfonyl-8-[(S)-oxan-4-yl(phenyl)methyl]-3,8,12-triazatricyclo[7.4.0.0^2,^7]trideca-1(13),2(7),3,5,9,11-hexaen-13-yl]ethane-1-sulfonamide] was tested, and the IC50 was < 0.001 µM.
With `[2H]C([2H])([2H])c1nnn(C)c1-c1cnc2c3c(OC(C)C)ncc(S(C)(=O)=O)c3n([C@H](c3ccccc3)C3CCOCC3)c2c1` [Example 58, 10-Methanesulfonyl-5-[4-(^2H3)methyl-1-methyl-1H-1,2,3-triazol-5-yl]-8-[(S)-oxan-4-yl(phenyl)methyl]-13-(propan-2-yloxy)-3,8,12-triazatricyclo[7.4.0.0^2,^7]trideca-1(13),2(7),3,5,9,11-hexaene] the IC50 was < 0.001 µM.
`Cc1nnn(C)c1-c1cnc2c3c(Cl)nc(C(C)(C)O)cc3n([C@H](c3ccccc3)C3CCOCC3)c2c1` [Example 294, 2-{13-chloro-5-[4-(^2H3)methyl-1-methyl-1H-1,2,3-triazol-5-yl]-8-[(S)-oxan-4-yl(phenyl)methyl]-3,8,12-triazatricyclo[7.4.0.0^2,^7]trideca-1(13),2(7),3,5,9,11-hexaen-11-yl}propan-2-ol] was tested, and the IC50 was < 0.01 µM.
With `Cc1nnn(C)c1-c1cnc2c3ccc(N4CCS(=O)(=O)C(C)C4)nc3n([C@H](c3ccccc3)C3CCOCC3)c2c1` (single isomer, unassigned; diastereomer b) [Example 218] the IC50 was < 0.001 µM.
In the case of `CC(=O)c1ccc(-c2ccc3c4ncc(-c5c(C)nnn5C)cc4n([C@H](c4ccccc4)C4CCOCC4)c3n2)s1` [Example 162, 1-{5-[5-(Dimethyl-1H-1,2,3-triazol-5-yl)-8-[(S)-oxan-4-yl(phenyl)methyl]-3,8,10-triazatricyclo[7.4.0.0^2,^7]trideca-1(9),2(7),3,5,10,12-hexaen-11-yl]thiophen-2-yl}ethan-1-one], the IC50 is reported as < 0.01 µM.
With `Cc1nnn(C)c1-c1cnc2c3c(NS(=O)(=O)CC4CC4)ncc(S(C)(=O)=O)c3n([C@H](c3ccccc3)C3CCOCC3)c2c1` [Example 104, 1-Cyclopropyl-N-[5-(dimethyl-1H-1,2,3-triazol-5-yl)-10-methanesulfonyl-8-[(S)-oxan-4-yl(phenyl)methyl]-3,8,12-triazatricyclo[7.4.0.0^2,^7]trideca-1(13),2(7),3,5,9,11-hexaen-13-yl]methanesulfonamide] the IC50 was < 0.01 µM.
With `[2H]C([2H])([2H])c1nnn(C)c1-c1cnc2c3ccc(N4CCN(C)CC4)nc3n([C@H](c3ccccc3F)C3CCOCC3)c2c1` [Example 234, 8-[(S)-(2-Fluorophenyl)(oxan-4-yl)methyl]-5-[4-(^2H3)methyl-1-methyl-1H-1,2,3-triazol-5-yl]-11-(4-methylpiperazin-1-yl)-3,8,10-triazatricyclo[7.4.0.0^2,^7]trideca-1(13),2(7),3,5,9,11-hexaene] the IC50 was < 0.01 µM.
`COc1nccc2c3ncc(-c4c(C)nnn4C)cc3n(C(c3cccc(F)c3)C3CCOCC3)c12` (single isomer, unassigned) [Example 21, 5-(Dimethyl-1H-1,2,3-triazol-5-yl)-8-[(3-fluorophenyl)(oxan-4-yl)methyl]-10-methoxy-3,8,11-triazatricyclo[7.4.0.0^2,^7]trideca-1(13),2(7),3,5,9,11-hexaene] was tested, and the IC50 was < 1.5 µM.
`Cc1nnn(C)c1-c1cnc2c3ccc(N4CCS(=O)(=O)C(C)C4)nc3n([C@H](c3ccccc3)C3CCOCC3)c2c1` (stereo partly drawn) [Example 213, 4-[5-(Dimethyl-1H-1,2,3-triazol-5-yl)-8-[(S)-oxan-4-yl(phenyl)methyl]-3,8,10-triazatricyclo[7.4.0.0^2,^7]trideca-1(9),2(7),3,5,10,12-hexaen-11-yl]-2-methyl-1λ^6,4-thiomorpholine-1,1-dione] was tested, and the IC50 was < 0.001 µM.
For `Cc1nnn(C)c1-c1cnc2c3ccc(C(C)(C)O)nc3n([C@H](c3ccccc3)C3CCOCC3)c2c1` [Example 174, 2-[5-(Dimethyl-1H-1,2,3-triazol-5-yl)-8-[(S)-oxan-4-yl(phenyl)methyl]-3,8,10-triazatricyclo[7.4.0.0^2,^7]trideca-1(9),2(7),3,5,10,12-hexaen-11-yl]propan-2-ol], the IC50 was < 0.001 µM.
For `[2H]C([2H])([2H])c1nnn(C)c1-c1cnc2c3c(OC)nc(C(C)(C)O)cc3n(C(c3ccccc3)C3CCC(F)(F)CC3)c2c1` (centres unmarked) [Example 346, 2-{8-[(4,4-Difluorocyclohexyl)(phenyl)methyl]-13-methoxy-5-[4-(^2H3)methyl-1-methyl-1H-1,2,3-triazol-5-yl]-3,8,12-triazatricyclo[7.4.0.0^2,^7]trideca-1(13),2(7),3,5,9,11-hexaen-11-yl}propan-2-ol], the IC50 was < 0.001 µM.
For `C=C(OCC)c1ccc2c3ncc(-c4c(C)nnn4C)cc3n([C@H](c3ccccc3)C3CCOCC3)c2n1` [Example 170, 5-(Dimethyl-1H-1,2,3-triazol-5-yl)-1-(1-ethoxyethenyl)-8-[(S)-oxan-4-yl(phenyl)methyl]-3,8,10-triazatricyclo[7.4.0.0^2,^7]trideca-1(9),2(7),3,5,10,12-hexaene], the IC50 was < 0.01 µM.
In the case of `Cc1nnn(C)c1-c1cnc2c3cnccc3n([C@H](c3ccccc3)C3CCOCC3)c2c1` [Example 35, 5-(Dimethyl-1H-1,2,3-triazol-5-yl)-8-[(S)-oxan-4-yl(phenyl)methyl]-3,8,12-triazatricyclo[7.4.0.0^2,^7]trideca-1(13),2(7),3,5,9,11-hexaene], the IC50 is reported as < 0.01 µM.
For `[2H]C([2H])([2H])c1nnn(C)c1-c1cnc2c3ccc(C(C)(C)O)nc3n([C@H](c3ccccc3F)C3CCOCC3)c2c1` [Example 241, 2-{8-[(S)-(2-Fluorophenyl)(oxan-4-yl)methyl]-5-[4-(^2H3)methyl-1-methyl-1H-1,2,3-triazol-5-yl]-3,8,10-triazatricyclo[7.4.0.0^2,^7]trideca-1(13),2(7),3,5,9,11-hexaen-11-yl}propan-2-ol], the IC50 was < 0.01 µM.
For `[2H]C([2H])([2H])N1CCN(c2ccc3c4ncc(-c5c(C)nnn5C)cc4n([C@H](c4ccccc4F)C4CCOCC4)c3n2)CC1` [Example 250, 5-(Dimethyl-1H-1,2,3-triazol-5-yl)-8-[(S)-(2-fluorophenyl)(oxan-4-yl)methyl]-11-[4-(^2H3)methylpiperazin-1-yl]-3,8,10-triazatricyclo[7.4.0.0^2,^7]trideca-1(13),2(7),3,5,9,11-hexaene], the IC50 was < 0.01 µM.
In the case of `CCCC(c1ccc(F)cn1)n1c2cc(-c3c(C)nnn3C)ncc2c2ncc(C(C)(C)O)cc21` (single isomer, unassigned) [Example 376], the IC50 is reported as < 0.01 µM.
In the case of `COc1nnn(C)c1-c1cnc2c3ccc(-c4c(OC)nnn4C)nc3n([C@H](c3ccccc3F)C3CCOCC3)c2c1` [Example 253, 8-[(S)-(2-Fluorophenyl)(oxan-4-yl)methyl]-5,11-bis(4-methoxy-1-methyl-1H-1,2,3-triazol-5-yl)-3,8,10-triazatricyclo[7.4.0.0^2,^7]trideca-1(13),2(7),3,5,9,11-hexaene], the IC50 is reported as < 0.01 µM.
With `[2H]C([2H])([2H])c1nnn(C)c1-c1cnc2c3cnc(Cl)cc3n(C(c3ncccc3F)C3CCOCC3)c2c1` (single isomer, unassigned) [Example 320] the IC50 was < 1.5 µM.
In the case of `CCCC(c1ccc(F)cn1)n1c2cc(-c3c(C)nnn3C)ncc2c2ncc(C(C)(C)O)cc21` (single isomer, unassigned) [Example 375], the IC50 is reported as < 1.5 µM.
In the case of `[2H]C([2H])([2H])c1nnn(C)c1-c1cnc2c3cncc(C(C)(C)O)c3n([C@H](c3ccccc3)C3CCOCC3)c2c1` [Example 291, 2-{5-[4-(^2H3)Methyl-1-methyl-1H-1,2,3-triazol-5-yl]-8-[(S)-oxan-4-yl(phenyl)methyl]-3,8,12-triazatricyclo[7.4.0.0^2,^7]trideca-1(9),2,4,6,10,12-hexaen-10-yl}propan-2-ol], the IC50 is reported as < 0.001 µM.
